Experimental data taken from US4465683A, “Anti-psychotic agents” (priority 1979, dated 1984).
Structures can show the parent of a compound that is named as a salt. Where two headings read alike, the source gives them in different places.

Experiments:
[1] = system: conditioned avoidance response (CAR); assay: conditioned avoidance response (CAR) in rats, shuttle box technique, oral; format: in vivo; details: Rattus norvegicus, read-out: ORAL CAR-ED50
Protocol: The apparatus employed is a box having a six-inch barrier separating two equal compartments. The floor of the left side of the box contains an electrified grid by means of which an intermittent shock is administered. The other side is not electrified. Rats are trained by placing them individually in the electrified compartment of the box and administering a foot shock which causes the rat to jump the barrier to the non-electrified side. […] The test drug is then administered in various doses to different groups of rats and the effect of the treatment in terms of the number of rats which fail to jump the barrier before receiving a foot shock is measured. That dose of test drug which will reduce the number of conditioned animals jumping the barrier before receiving a foot shock by one-half is referred to as the CAR-ED50.

[2] = system: pernicious preening; assay: Prevention of pernicious preening in mice (anti-psychotic or analgetic); format: in vivo; details: Mus musculus, po
[3] = system: reserpine ptosis; assay: Prevention of reserpine ptosis in mice (anti-depressant); format: in vivo
[4] = U.S. Pat. No. 3,381,009; cited from earlier work
[5] = compared with imipramine; cited from earlier work
[6] = system: schizophrenic patients; details: et al. (1973), cited from earlier work
[7] = system: phenylquinone writhing; assay: Reduction of phenylquinone writhing in mice (analgesic); format: in vivo; details: Mus musculus, po
[8] = rats, oral, dose reducing by one-half the number of conditioned animals jumping the barrier before foot shock

O=c1n(CCCN2CCN(c3cccc(Cl)c3)CC2)nc2ccccn12 [Trazodone, 2-[3-[4-(3-chlorophenyl)-1-piperazinyl]-propyl]-1,2,4-triazolo[4,3-a]pyridin-3(2H)-one]
ED50 [1, 8]: 45.4 mg/kg | ED50 [2]: 43 mg/kg | ED50 ([3]; Mus musculus, po): 36 mg/kg | pharmacological actions in animal tests [4]: tranquilizing action, hypotensive action, and analgesic action | clinical antidepressant effectiveness [5]: equivalent in effectiveness to imipramine | side effects in clinical use [5]: fewer side effects | effect on depressive symptoms exhibited by schizophrenics ([6]; Ban): improvement in depressive symptoms | anti-psychotic action in schizophrenic patients ([6]; Galvan): minimal

COc1ccccc1N1CCN(CCCCn2nc3ccccn3c2=O)CC1 [Formula I, R^1 = H, R^2 = 2-CH3 O, 2-[4-[4(2-Methoxphenyl)-1-piperazinyl]-butyl]-1,2,4-triazolo[4,3-a]pyridin-3-(2H)-one Hydrochloride]
ED50 [1, 8]: 18.4 mg/kg

Cl.O=c1n(CCCCN2CCN(c3cccc(C(F)(F)F)c3)CC2)nc2ccccn12 [Formula I, R^1 = H, R^2 = 3-CF3, 2-[4-[4-[3-(Trifluoromethyl)phenyl]-1-piperazinyl]butyl]-1,2,4-triazolo[4,3-a]pyridin-3(2H)-one Hydrochloride]
ED50 [1, 8]: 11.4 mg/kg

O=c1n(CCCCN2CCN(c3cccc(Cl)c3)CC2)nc2ccccn12 [Formula I, R^1 = H, R^2 = 3-Cl, 2-[4-[4-(3-Chlorophenyl)piperazin-1-yl]butyl]-1,2,4-triazolo[4,3-a]pyridin-3-(2H)-one]
ED50 [1, 8]: 9 mg/kg | ED50 [2]: 8 mg/kg | activity in prevention of reserpine ptosis ([3]; at 15.7 mg/kg (p.o.)): inactive | ED50 [7]: 23 mg/kg

CN(C)CCCN1c2ccccc2Sc2ccc(Cl)cc21 [Chlorpromazine]
ED50 ([1]; po): 38.7 mg/kg
